From patent US8361999B2, “Methods of treating cholesterol gallstone disease with ezetimibe” (Pontificia Universidad Catolica de Chile, priority 2005, dated 2013)

What was measured:
[1] = test system: intestinal cholesterol absorption; details: mammalian models (murine models); cited from earlier work
Ntcp = assay: Hepatic expression of bile salts transporter Ntcp (Western blot); assay type: in vivo, mouse
Text: (§1) Expression of Specific Bile Salts (Ntcp, Bsep), Phospholipid (MDR2) and Organic Anions or Glutathione (MRP2); And Determination of Glutathione Synthesis (Gluthamylcystein-Synthetase (GGCS)).
Western Blot analysis. We evaluated protein expression levels of the bile salts transporters Ntcp (sinusoidal pole) and Bsep (cannicular pole) by Western blotting in total liver membranes or liver plasma membranes from mice treated with the different diets. Total membranes were obtained from liver fragments homogenized in Tris-HCl pH 7.5, MgCl2 and sucrose. The homogenates were centrifuged at 1,000 g to separate nuclei, and the supernatants were then centrifuged at 100,000 g. The pellet, containing the total membranes, was resuspended in the buffer described above and proteins were quantified by the Bradford method. Aliquots containing 50 μg protein were separated by SDS-PAGE and transfer to nitrocellulose. The membranes were incubated in buffer TBS-T (Tris-HCl pH 7.5, NaCl and Tween-20), milk 5% w/v plus the antibodies to evaluate the different proteins (Bsep, Ntcp). The secondary antibodies were IgG anti rabbit or anti mouse coupled to peroxidase. The protein signals were detected by the ECL method.

C57BL/6J mice = assay: Plasma cholesterol and plasma lipoprotein profile, protocol #1; assay type: in vivo, mouse
Protocol: Surgery and sample harvest. The groups were maintained for 14 days (protocol #1) or 30 days (protocol #2) in the different experimental conditions. During the last three days of the protocols, 24 h depositions were collected from the different groups (pool) to determine the fecal excretion of neutral sterols (cholesterol) and acidic sterols (bile salts). At the end of the time established in the protocols, the mice were anesthetized (between 08:00-10:00 AM) with an intraperitoneal pentobarbital injection in doses of 4.5 mg per 100 gr body weight (Amigo et al., 2000) and subjected to surgery. Standardized surgery consists in an extended […] and visualization of abdominal organs, including liver, biliary tree and gallbladder. First, we performed a resection of the gallbladder (cholecystectomy), with the cystic duct previously ligated (Amigo et al., 2002; Amigo et al., 2000; Amigo et al., 2003b). The gallbladder is removed and visually inspected to determine the presence of gallstones. Then, the gallbladder bile is extracted to analyze the presence of cholesterol crystals in the fresh samples under the microscope with polarized light (20×). Aliquots are stored at −20° C. for subsequent chemical analysis. Afterwards, the common biliary duct is cannulated (biliary fistula) with a P-10 polyethylene cannula to collect bile during 15 minutes, determine bile flow by gravimetry (1 g bile=1 ml; bile flow is expressed as μl/min/g of mouse liver) and for posterior chemical analysis of biliary lipids and glutathione, as specified later. […] Then, the liver is removed, weighted, frozen in liquid nitrogen and stored at −80 for subsequent analyses. The plasma is separated by centrifugation at 1,500 rpm and stored at −80° C. for later analysis. The animal protocols were approved by our institution Ethics Committee and the animals were treated according to international care rules for experimental animals.
Intestinal absorption of cholesterol and bile salts. The capacity of Ezetimibe to inhibit cholesterol and bile salt absorption was indirectly determined by quantification of neutral sterols (cholesterol) and acidic sterols (bile acids) present in the feces collected on day 12, 13 and 14 of the experiment (three days). In order to determine cholesterol (neutral sterols) fecal excretion, the feces were dried at 50° C. for three days and then weighted to obtain an average of fecal excretion per day (in grams). The feces were homogenized in a mortar, and 5 ml 2N NaOH:methanol, 1:1 are added per 100 mg (dry weight) aliquots of the homogenate. The sample is vortex and incubated at 60° C. for 1 h for saponification, then it is cooled and 5 ml petroleum ether is added followed by vigorous agitation to obtain the separation of the hydrophobic and hydrophilic phases. The samples are then centrifuged at 1,000 rpm for 10 minutes and the hydrophobic phase (upper layer) is recovered. Second and third extractions are performed by adding 5 ml petroleum ether to the hydrophilic phase. The hydrophobic phases are dried under gaseous nitrogen and the lipids are resuspended in 1 ml chloroform. 50 μl aliquots, in duplicate, are dried at room temperature, and total cholesterol is quantified according to the enzymatic method described above. The values obtained are expressed as μmoles cholesterol/day/100 g of mouse (Miettinen et al., 1965). […]

GGCS = assay: Hepatic expression of gamma-gluthamylcystein-synthetase (Northern blot); assay type: in vivo, mouse; details: 14 days
Protocol: as §1
(§2) Total RNA extraction. 80 mg hepatic tissue frozen at −70° C. was homogenized in 800 μl solution D, following the method described by Chomczynski and Sacchi, 1987. The RNA concentration was calculated by measuring the absorbance at 260 nm and its purity by the ratio OD260/OD280. The samples are stored at −20° C. RNA electrophoresis. 10 μg of total RNA are dried under gaseous N2 or vacuum for 10 minutes. 10 μl loading buffer were added, and the samples heated to 65° C., loaded into a denaturing 1% agarose/formaldehyde gel and run at 100 volts for 4 hours. The RNA integrity was determined by the clear visualization of the 28 S and 18 S ribosomal RNAs (FIG. 8).
(§3) Northern Blot and hybridization with radioactive probes. The gel with the RNA samples is washed with DEPC H2O for 10 minutes to eliminate formaldehyde and then incubated for 20 minutes with 50 mM NaOH for partial RNA hydrolysis. After a 10 minute wash with DEPC H2O to eliminate NaOH, the samples are transferred from the gel to Nylon membranes (Hybond-N, Amersham Pharmacia) over night by a capillary system. […]
(§4) Probe labeling by “de novo synthesis”. […] The percentage of incorporated radioactivity into the probe was always over 60%. […]

MRP2 = assay: Hepatic expression of MRP2 (Northern blot); assay type: in vivo, mouse; details: 14 days
Protocol: as §1, §2, §3, §4

Q: Which “dosages that effectively inhibit intestinal cholesterol absorption” value [1] does the source give for `O=C1[C@H](CC[C@H](O)c2ccc(F)cc2)[C@@H](c2ccc(O)cc2)N1c1ccc(F)cc1` [Ezetimibe, (−)-1-(4-fluorophenyl)-(3R)-[3-(4-fluorophenyl)-(.S)-hydroxypropyl]-(4S)-(4-hydroxyphenyl)-2-azetidinone] here?
A: 0.1-6 mg/kg body weight per day

Q: What about the “hepatic expression of Ntcp, lithogenic diet plus Ezetimibe vs lithogenic diet” value (Ntcp; 14 days) of the same molecule?
A: no significant differences

Q: What about the “decrease of Ntcp protein expression level on a lithogenic diet” value (Ntcp; FIG. 6 B, lithogenic diet with Ezetimibe vs plus water) of the same molecule?
A: significantly attenuated

Q: What about the “Plasma Cholesterol” value (C57BL/6J mice; Chow + Ezetimibe, 14 days) of the same molecule?
A: 86.21 ± 13.8 mg/dL

Q: And the “Plasma Cholesterol” value (C57BL/6J mice; Lithogenic + Ezetimibe, 14 days)?
A: 161.38 ± 38.96 mg/dL

Q: What about the “plasma lipoprotein profile, ezetimibe groups vs controls” value (C57BL/6J mice; chow and lithogenic diets, 14 days (FIG. 2)) of the same molecule?
A: did not show significant differences

Q: And the “concentration of total cholesterol in plasma, with vs without ezetimibe” value (C57BL/6J mice; control diet, 14 days)?
A: similar

Q: And the “increase of plasma cholesterol concentration, with vs without ezetimibe” value (C57BL/6J mice; lithogenic diet, 14 days)?
A: similarly

Q: And the “hepatic expression of GGCS, lithogenic diet plus Ezetimibe vs lithogenic diet” value (GGCS)?
A: no significant differences

Q: What about the “hepatic expression of MRP2, lithogenic diet plus Ezetimibe vs lithogenic diet” value (MRP2) of the same molecule?
A: no significant differences
